From PubChem BioAssay AID493062 (The Scripps Research Institute Molecular Screening Center, 2011)

Assays:
2B4/BCL-2 = assay: MCL-1-selective apoptosis induction in 2B4 cells – cell-based, fluorescence, assay provider data, selectivity assay for MCL1-BIM inhibitor project, late-stage follow-up (AID 493062); conditions: 2B4/MCL-1 caspase activation fluorescence
2B4/MCL-1 = assay: as above; conditions: 2B4/MCL-1 caspase activation fluorescence

SMILES	EC50 (2B4/BCL-2)	EC50 (2B4/MCL-1)
COc1ccc(Cc2nnc(NC(=O)Cc3ccncc3)s2)cc1OC	> 25 µM	> 25 µM
O=C(c1cc(-c2ccco2)nc2ccccc12)N(Cc1nnc(-c2ccc(Cl)cc2)o1)C1CC1	> 25 µM	> 25 µM
Cc1ccc(-c2cc(C(=O)Nc3ccccc3C(N)=O)c3ccccc3n2)o1	> 25 µM	> 25 µM
CCc1nnc(NC(=O)c2cc(-c3ccco3)nc3ccccc23)s1	> 25 µM	> 25 µM
O=C(NCC1CCCO1)c1cc(-c2ccco2)nc2ccccc12 (stereo not drawn)	> 25 µM	> 25 µM
Cc1ccnc(NC(=O)c2cc(-c3ccco3)nc3ccc(Br)cc23)c1	> 25 µM	12 µM
CC(=O)N1CCN(C(=O)c2cc(-c3ccc(C)o3)nc3ccccc23)CC1	> 25 µM	> 25 µM
Cc1ccc(NC(=O)c2cc(-c3ccco3)nc3ccccc23)cc1S(=O)(=O)N1CCOCC1	> 25 µM	> 25 µM
Cc1ccc(-c2cc(C(=O)N(C)CC(=O)Nc3ccccc3Br)c3ccccc3n2)o1	> 25 µM	> 25 µM
O=C(Nc1cccc(S(=O)(=O)NC2=NCCCCC2)c1)c1cc(-c2ccco2)nc2ccccc12	> 25 µM	> 25 µM
CC(=O)c1cccc(NC(=O)c2cc(-c3ccco3)nc3ccccc23)c1	> 25 µM	> 25 µM
O=C(Nc1nc2ccccc2s1)c1cc(-c2ccco2)nc2ccccc12	> 25 µM	> 25 µM
COc1ccc(Cc2nnc(NC(=O)CCc3cccs3)s2)cc1OC	> 25 µM	> 25 µM
Cc1ccc(-c2cc(C(=O)N3CCN(c4ccc(F)cc4)CC3)c3ccccc3n2)o1	> 25 µM	> 25 µM
Cc1ccc(-c2cc(C(=O)Nc3ccccc3C)c3ccccc3n2)o1	> 25 µM	> 25 µM
COc1cccc(NC(=O)CN(C)C(=O)c2cc(-c3ccc(C)o3)nc3ccccc23)c1	> 25 µM	> 25 µM
COc1ccc(Cc2nnc(NC(=O)c3cc(-c4ccco4)nc4ccccc34)s2)cc1OC	> 25 µM	> 25 µM
CCCCn1c(N)c(N(CC(C)C)C(=O)c2cc(-c3ccco3)nc3ccccc23)c(=O)[nH]c1=O	> 25 µM	> 25 µM
Cc1ccc(-c2cc(C(=O)Nc3cccc(S(=O)(=O)N(C)C)c3)c3ccccc3n2)o1	> 25 µM	> 25 µM
Cc1ccc(-c2cc(C(=O)Nc3ccccn3)c3ccccc3n2)o1	> 25 µM	> 25 µM
CCOc1cc(N2CCOCC2)c(OCC)cc1NC(=O)c1cc(-c2ccco2)nc2ccccc12	> 25 µM	> 25 µM

Next, values leading:

EC50 (2B4/BCL-2)	EC50 (2B4/MCL-1)	SMILES
> 25 µM	> 25 µM	CCOC(=O)C1CCCN(C(=O)c2cc(-c3ccco3)nc3ccccc23)C1 (stereo not drawn)
> 25 µM	> 25 µM	COc1ccc(Cc2nnc(NC(=O)Cc3ccc4ccccc4c3)s2)cc1OC
> 25 µM	> 25 µM	COc1ccc(NC(=O)c2cc(-c3ccc(C)o3)nc3ccccc23)cc1OC
> 25 µM	> 25 µM	COc1ccc(Cc2nnc(NC(=O)C(=O)c3ccco3)s2)cc1OC
> 25 µM	> 25 µM	COc1ccc(Cc2nnc(NC(=O)Cc3ccccn3)s2)cc1OC
> 25 µM	> 25 µM	Cc1ccc(-c2cc(C(=O)NCCCn3ccnc3)c3cc(Br)ccc3n2)o1
> 25 µM	> 25 µM	O=C(Nc1cccc(F)c1)c1cc(-c2ccco2)nc2ccccc12
> 25 µM	> 25 µM	COc1ccc(Cc2nnc(NC(=O)Cc3cccs3)s2)cc1
40 µM	40 µM	Cc1ccnc(NC(=O)c2cc(-c3ccc(C)o3)nc3ccccc23)c1
> 25 µM	> 25 µM	COc1ccc(NC(=O)CN(C)C(=O)c2cc(-c3ccc(C)o3)nc3ccccc23)cc1
> 25 µM	> 25 µM	COCCCN(C(=O)c1cc(-c2ccco2)nc2ccccc12)c1c(N)n(Cc2ccccc2)c(=O)[nH]c1=O
> 25 µM	> 25 µM	O=C(Nc1cccc(S(=O)(=O)NC2=NCCC2)c1)c1cc(-c2ccco2)nc2ccccc12
> 25 µM	> 25 µM	CCN1CCN(C(=O)c2cc(-c3ccco3)nc3ccccc23)CC1
> 25 µM	> 25 µM	COc1cccc(NC(=O)CN(C)C(=O)c2cc(-c3ccco3)nc3ccccc23)c1
> 25 µM	> 25 µM	Cc1ccc(-c2cc(C(=O)Nc3cccnc3)c3ccccc3n2)o1
> 25 µM	> 25 µM	COc1cccc(NC(=O)c2cc(-c3ccc(C)o3)nc3ccccc23)c1
3.6 µM	4 µM	COc1ccc(Cc2nnc(NC(=O)Cc3ccc(Oc4ccccc4)cc3)s2)cc1OC
> 25 µM	> 25 µM	CCc1nnc(NC(=O)c2cc(-c3ccc(C)o3)nc3ccccc23)s1
> 25 µM	> 25 µM	Cc1ccc(-c2cc(C(=O)N3CC(C)CC(C)C3)c3ccccc3n2)o1 (stereo not drawn)
> 25 µM	> 25 µM	COc1cccc(NC(=O)c2cc(-c3ccco3)nc3ccccc23)c1
> 25 µM	> 25 µM	CCN(CC)C(=O)COc1ccc2c(-c3ccc(OC)cc3)cc(=O)oc2c1C
> 25 µM	> 25 µM	O=C(c1cc(-c2ccco2)nc2ccccc12)N1CCN(Cc2ccccc2)CC1
> 25 µM	> 25 µM	Cc1ccc(-c2cc(C(=O)NCCN3CCOCC3)c3ccccc3n2)o1
